Among the data in patent US10738057B2, “Tertiary alcohols as PI3K-γ inhibitors” (Incyte Corporation, priority 2017, dated 2020) are IC50 values, retold here.

Counter-ions that a name gives are not always drawn. Like-named read-outs stand apart in the source and are kept apart here.

The target of assay [1] is PI3Kδ (p110δ/p85α) Recombinant Human Protein (Homo sapiens (Human), UniProt O00329). The experiment in a line: PI3Kδ scintillation proximity assay. The format is biochemical. The following applies: 20 μM PIP2, 2 μM ATP, 3.4 nM PI3Kδ, 120 min, room temperature; read-out: PI3Kδ IC50. The protocol: PI3Kδ Scintillation Proximity Assay
[γ-^33P]ATP (10 mCi/mL) and Wheat Germ Agglutinin (WGA) YSi SPA Scintillation Beads was purchased from PerkinElmer (Waltham, Mass.). […] PI3Kδ (p110δ/p85α) Recombinant Human Protein was purchased from Eurofins (St Charles, Mo.). ATP, MgCl2, DTT, EDTA, MOPS and CHAPS were purchased from SigmaAldrich (St. Louis, Mo.).
The kinase reaction was conducted in polystyrene 384-well Greiner Bio-one white plate from Thermo Fisher Scientific in a final volume of 25 μL. Inhibitors were first diluted serially in DMSO and added to the plate wells before the addition of other reaction components. The final concentration of DMSO in the assay was 2%. The PI3Kδ assay was carried out at room temperature in 20 mM MOPS, pH 6.7, 10 mM MgCl2, 5 mM DTT and CHAPS 0.03%. Reactions were initiated by the addition of ATP, the final reaction mixture consisted of 20 μM PIP2, 2 μM ATP, 0.5 μCi [γ-^33P] […] The final concentration of SPA beads is 1.0 mg/mL. After the plate sealing, plates were shaken overnight at room temperature and centrifuged at 1500 rpm for 10 min, the radioactivity of the product was determined by scintillation counting on Topcount (PerkinElmer). IC50 determination was performed by fitting the curve of percent of the solvent control activity versus the log of the inhibitor concentration using the GraphPad Prism 6.0 software.
For orientation: Scintillation proximity formats need no separation of bound from free tracer.

Assay [2] has as its system Phosphorylated Ribosomal Protein S6 (RPS6) in THP-1 cells. Kind of assay: THP-1 RPS6 ELISA assay. The assay is classed as cell-based, Human. How it is done:
Example A. THP-1 RPS6 ELISA Assay
To measure the Phosphorylated Ribosomal Protein S6 (RPS6) in cell lysates, THP-1 cells (Human Acute Monocytic Leukemia) are purchased from ATCC (Manassas, Va.) and maintained in RPMI with 10% FBS (Gibco/Life Technologies, Carlsbad, Calif.). For the assay, THP-1 cells are serum starved overnight in RPMI, then plated in RPMI (2×10^5 cells/well in 90 μL) into 96-well flat-bottom tissue culture treated plates (Corning, Corning, N.Y.), in the presence or absence of a concentration range of test compounds. Covered plates are incubated for 2 hours at 37° C., 5% CO2 then treated with or without 10 nM MCP-1 (MYBioSource, San Diego, Calif.) for 15 minutes at 37° C., 5% CO2. Plates are centrifuged at 1600 RPM and supernatants are removed. Cells are lysed in Lysis Buffer (Cell Signaling, Danvers, Mass.) with Protease Inhibitor (Calbiochem/EMD, Germany), PMSF (Sigma, St Louis Mo.), HALTS (Thermo Fisher, Rockford, Ill.) for 30 min on wet ice. Cell lysates are frozen at −80° C. before testing. The lysates are tested in the Human/Mouse/Rat Phospho-RPS6 ELISA (R&D Systems, Inc. Minn, Minn.). The plate is measured using a microplate reader (SpectraMax M5—Molecular Devices, LLC Sunnyvale, Calif.) set to 450 nm with a wavelength correction of 540. IC50 determination is performed by fitting the curve of inhibitor percent inhibition versus the log of the inhibitor concentration using the GraphPad Prism 5.0 software.
Background: ELISA stands for enzyme-linked immunosorbent assay.

For assay [3], the target named is PI3Kγ (p110γ) Recombinant Human Protein (Homo sapiens (Human), UniProt P48736). The experiment in a line: PI3K-γ scintillation proximity assay. The assay is classed as biochemical. The following applies: 20 μM PIP2, 2 μM ATP, 13 nM PI3Kγ, 120 min, room temperature. The source says: Example B. PI3K-γ Scintillation Proximity Assay
[γ-^33P]ATP (10 mCi/mL) and Wheat Germ Agglutinin (WGA) YSi SPA Scintillation Beads was purchased from PerkinElmer (Waltham, Mass.). Lipid kinase substrate, D-myo-Phosphatidylinositol 4,5-bisphosphate (PtdIns(4,5)P2)D (+)-sn-1,2-di-O-octanoylglyceryl, 3-O-phospho linked (PIP2), CAS 204858-53-7, was purchased from Echelon Biosciences (Salt Lake City, Utah). PI3Kγ (p110γ) Recombinant Human Protein was purchased from Life technology (Grand Island, N.Y.). ATP, MgCl2, DTT, EDTA, MOPS and CHAPS were purchased from SigmaAldrich (St. Louis, Mo.).
The kinase reaction was conducted in polystyrene 384-well Greiner Bio-one white plate from Thermo Fisher Scientific in a final volume of 25 μL. Inhibitors were first diluted serially in DMSO and added to the plate wells before the addition of other reaction components. The final concentration of DMSO in the assay was 2%. The PI3Kγ assay was carried out at room temperature in 20 mM MOPS, pH 6.7, 10 mM MgCl2, 5 mM DTT and CHAPS 0.03%. Reactions were initiated by the addition of ATP, the final reaction mixture consisted of 20 μM PIP2, 2 μM ATP, 0.5 μCi [γ-^33P] ATP, 13 nM PI3Kγ. Reactions were incubated for 120 min and terminated by the addition of 40 μL SPA beads suspended in quench buffer: 163 mM potassium phosphate pH 7.8, 20% glycerol, 25 mM EDTA. The final concentration of SPA beads is 1.0 mg/mL. After the plate sealing, plates were shaken overnight at room temperature and centrifuged at 1500 rpm for 10 min, the radioactivity of the product was determined by scintillation counting on Topcount (Perkin-Elmer). IC50 determination was performed by fitting the curve of percent of the solvent control activity versus the log of the inhibitor concentration using the GraphPad Prism 6.0 software.

Setting [4] is: THP-1 cells, serum starved, 2 h compound, 10 nM MCP-1 for 15 min, phospho-RPS6 ELISA, read-out: PI3Kγ_THP1_RPS6_ELISA IC50.
The mark [5] stands for this setting: Homo sapiens, THP-1, THP-1 cells, serum starved, 2 h compound, 10 nM MCP-1 for 15 min, phospho-RPS6 ELISA, read-out: PI3Kγ_THP1_RPS6_ELISA IC50.
The mark [6] stands for this setting: Homo sapiens, THP-1, read-out: PI3Kγ_THP1_RPS6_ELISA IC50 (nM).

Sequence of PI3Kδ (p110δ/p85α) Recombinant Human Protein (O00329 whole entry): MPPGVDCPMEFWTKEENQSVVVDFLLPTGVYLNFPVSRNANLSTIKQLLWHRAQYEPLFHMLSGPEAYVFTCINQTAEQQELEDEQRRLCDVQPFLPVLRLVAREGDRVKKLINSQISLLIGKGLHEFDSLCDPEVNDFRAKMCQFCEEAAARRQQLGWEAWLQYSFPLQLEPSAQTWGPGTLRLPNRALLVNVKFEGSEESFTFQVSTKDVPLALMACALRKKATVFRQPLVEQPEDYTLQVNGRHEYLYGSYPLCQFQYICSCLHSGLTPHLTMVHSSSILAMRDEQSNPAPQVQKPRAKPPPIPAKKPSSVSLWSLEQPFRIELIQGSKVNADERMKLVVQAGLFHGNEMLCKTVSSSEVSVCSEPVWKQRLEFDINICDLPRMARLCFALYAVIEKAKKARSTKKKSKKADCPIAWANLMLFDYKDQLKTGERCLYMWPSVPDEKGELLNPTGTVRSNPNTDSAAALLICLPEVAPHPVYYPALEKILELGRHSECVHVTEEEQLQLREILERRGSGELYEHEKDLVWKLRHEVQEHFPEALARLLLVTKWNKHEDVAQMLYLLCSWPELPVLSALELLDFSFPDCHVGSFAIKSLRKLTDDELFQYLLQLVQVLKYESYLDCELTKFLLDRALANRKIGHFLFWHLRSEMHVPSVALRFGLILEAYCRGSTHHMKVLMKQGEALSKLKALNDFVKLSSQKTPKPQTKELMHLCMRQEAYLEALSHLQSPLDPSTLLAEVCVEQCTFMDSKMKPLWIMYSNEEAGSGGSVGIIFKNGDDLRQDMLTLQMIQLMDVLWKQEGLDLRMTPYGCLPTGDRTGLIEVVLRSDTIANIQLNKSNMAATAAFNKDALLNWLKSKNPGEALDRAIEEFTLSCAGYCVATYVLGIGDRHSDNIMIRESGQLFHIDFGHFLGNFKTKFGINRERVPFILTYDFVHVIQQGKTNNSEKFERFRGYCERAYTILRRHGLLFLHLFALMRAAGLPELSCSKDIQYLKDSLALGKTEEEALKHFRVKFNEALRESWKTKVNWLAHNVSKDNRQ
Sequence of PI3Kδ (p110δ/p85α) Recombinant Human Protein (P27986 whole entry partner): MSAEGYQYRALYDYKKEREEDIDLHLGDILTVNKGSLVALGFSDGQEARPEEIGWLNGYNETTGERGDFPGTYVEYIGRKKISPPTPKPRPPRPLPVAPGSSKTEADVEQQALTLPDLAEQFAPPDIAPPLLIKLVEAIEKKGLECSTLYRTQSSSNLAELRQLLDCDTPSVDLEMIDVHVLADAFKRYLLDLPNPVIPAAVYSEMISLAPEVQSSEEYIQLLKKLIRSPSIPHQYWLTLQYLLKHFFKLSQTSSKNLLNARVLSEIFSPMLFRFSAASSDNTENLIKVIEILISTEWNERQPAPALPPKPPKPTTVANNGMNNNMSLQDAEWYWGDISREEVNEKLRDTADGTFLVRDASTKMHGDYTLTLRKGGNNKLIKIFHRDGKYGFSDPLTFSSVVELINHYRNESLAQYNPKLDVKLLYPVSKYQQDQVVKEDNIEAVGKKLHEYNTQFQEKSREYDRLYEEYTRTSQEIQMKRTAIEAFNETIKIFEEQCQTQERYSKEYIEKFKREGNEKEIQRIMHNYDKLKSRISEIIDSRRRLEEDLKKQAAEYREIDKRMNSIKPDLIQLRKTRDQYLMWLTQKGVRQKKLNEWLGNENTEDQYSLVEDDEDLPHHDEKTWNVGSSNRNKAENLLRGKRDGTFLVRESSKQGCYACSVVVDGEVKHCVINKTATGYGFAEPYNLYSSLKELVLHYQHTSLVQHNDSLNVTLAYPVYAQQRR
Sequence of PI3Kγ (p110γ) Recombinant Human Protein (P48736 whole entry): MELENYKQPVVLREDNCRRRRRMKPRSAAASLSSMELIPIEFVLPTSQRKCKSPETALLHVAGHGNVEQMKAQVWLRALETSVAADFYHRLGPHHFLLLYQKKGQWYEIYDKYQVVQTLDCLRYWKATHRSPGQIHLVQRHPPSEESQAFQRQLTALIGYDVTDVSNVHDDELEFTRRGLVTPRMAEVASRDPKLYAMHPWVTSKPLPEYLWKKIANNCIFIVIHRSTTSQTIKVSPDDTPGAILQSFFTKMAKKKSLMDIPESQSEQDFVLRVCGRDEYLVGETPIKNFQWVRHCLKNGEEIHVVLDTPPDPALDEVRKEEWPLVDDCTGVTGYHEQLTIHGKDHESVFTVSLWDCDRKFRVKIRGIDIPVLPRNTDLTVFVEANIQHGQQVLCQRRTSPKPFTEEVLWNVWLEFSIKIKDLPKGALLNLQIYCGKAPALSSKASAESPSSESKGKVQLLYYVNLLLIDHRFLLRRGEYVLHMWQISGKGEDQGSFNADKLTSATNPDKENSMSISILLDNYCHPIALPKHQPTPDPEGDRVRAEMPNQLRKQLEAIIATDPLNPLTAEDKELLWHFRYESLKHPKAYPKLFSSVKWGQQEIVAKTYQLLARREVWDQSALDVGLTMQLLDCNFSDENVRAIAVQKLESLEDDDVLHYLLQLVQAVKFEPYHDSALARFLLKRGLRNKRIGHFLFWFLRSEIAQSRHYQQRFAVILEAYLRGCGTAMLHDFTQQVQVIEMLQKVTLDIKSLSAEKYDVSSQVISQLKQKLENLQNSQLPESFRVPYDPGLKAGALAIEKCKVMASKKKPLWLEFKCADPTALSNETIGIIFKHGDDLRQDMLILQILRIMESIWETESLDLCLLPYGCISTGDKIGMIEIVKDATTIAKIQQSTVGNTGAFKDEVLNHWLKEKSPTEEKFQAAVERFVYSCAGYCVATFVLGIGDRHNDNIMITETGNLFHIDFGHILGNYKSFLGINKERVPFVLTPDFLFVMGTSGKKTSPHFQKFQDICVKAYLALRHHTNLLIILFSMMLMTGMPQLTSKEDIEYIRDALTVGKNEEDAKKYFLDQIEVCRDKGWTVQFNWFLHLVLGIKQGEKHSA

With “2-(3-(8-Amino-6-(3-methyl-1H-pyrazol-4-yl)imidazo[1,2-a]pyrazin-3-yl)-4-methylphenyl)-1,1-difluoropropan-2-ol, 1.2TFA [Example 47]”, the IC50 – broadly, the concentration needed to halve the response being measured – in assay [1] was below 0.1 µM; in assay [2] (setting [4]), below 100 nM; in assay [3], below 0.1 µM.

With `Cc1ccc(C(C)(O)CF)cc1-c1cnc2c(N)nc(C(F)(F)F)cn12` (racemic) [Example 24, 2-(3-(8-Amino-6-(trifluoromethyl)imidazo[1,2-a]pyrazin-3-yl)-4-methylphenyl)-1-fluoropropan-2-ol trifluoroacetate salt], the results for the half-maximal inhibitory concentration (IC50) in assay [1], in assay [2] (setting [5]) and in assay [3] were 0.5 to 2 µM, 500 to 1000 nM and below 0.1 µM, respectively.

On to `Cc1ccc(C(O)(CO)C(F)(F)F)cc1-c1cnc2c(N)nc(-c3cnn(C)c3)cn12` (racemic) [Example 69, 2-(3-(8-Amino-6-(1-methyl-1H-pyrazol-4-yl)imidazo[1,2-a]pyrazin-3-yl)-4-methylphenyl)-3,3,3-trifluoropropane-1,2-diol trifluoroacetate salt], for which the IC50 in assay [2] (setting [6]) is below 100 nM.

Turning to `Cc1ncc(-c2cn3c(-c4cc(C(O)(CO)C(F)(F)F)ccc4C)cnc3c(N)n2)s1` (racemic) [Example 70, 2-(3-(8-Amino-6-(2-methylthiazol-5-yl)imidazo[1,2-a]pyrazin-3-yl)-4-methylphenyl)-3,3,3-trifluoropropane-1,2-diol trifluoroacetate salt], the IC50 in assay [2] (setting [6]) was below 100 nM.

As to `Cc1ccc(C(O)(CO)C(F)(F)F)cc1-c1cnc2c(N)nc(-c3cnco3)cn12` (racemic) [Example 71, 2-(3-(8-Amino-6-(oxazol-5-yl)imidazo[1,2-a]pyrazin-3-yl)-4-methylphenyl)-3,3,3-trifluoropropane-1,2-diol trifluoroacetate salt], the IC50 in assay [2] (setting [6]) was below 100 nM.

On to `Cc1ccc(C(C)(O)C(F)(F)F)cc1-c1cnc2c(N)nc(C(F)(F)F)cn12` (single isomer, unassigned) [Example 5, 2-(3-(8-Amino-6-(trifluoromethyl)imidazo[1,2-a]pyrazin-3-yl)-4-methylphenyl)-1,1,1-trifluoropropan-2-ol], for which the values for the IC50 in assay [1], in assay [2] (setting [4]) and in assay [3] were 0.1 to 0.5 µM, 500 to 1000 nM and below 0.1 µM, respectively.

For the molecule `Cc1ccc(C(C)(O)C(F)(F)F)cc1-c1cnc2c(N)nc(C(F)(F)F)cn12` (single isomer, unassigned) [Example 6, 2-(3-(8-Amino-6-(trifluoromethyl)imidazo[1,2-a]pyrazin-3-yl)-4-methylphenyl)-1,1,1-trifluoropropan-2-ol], the IC50 was 0.1 to 0.5 µM in assay [1], 100 to 500 nM in assay [2] (setting [4]) and below 0.1 µM in assay [3].

On to `Cc1ccc(C(O)(C(N)=O)C(F)(F)F)cc1-c1cnc2c(N)nc(C(C)(C)O)cn12` (single isomer, unassigned) [Example 255, 2-(3-(8-Amino-6-(2-hydroxypropan-2-yl)imidazo[1,2-a]pyrazin-3-yl)-4-methylphenyl)-3,3,3-trifluoro-2-hydroxypropanamide trifluoroacetate salt], for which the IC50 in assay [2] (setting [5]) was below 100 nM.

As for `Cc1ccc(C(O)(C(N)=O)C(F)(F)F)cc1-c1cnc2c(N)nc(C(=O)NC34CCC(O)(CC3)C4)cn12` (single isomer, unassigned) [Example 260, 8-Amino-3-(5-(3-amino-1,1,1-trifluoro-2-hydroxy-3-oxopropan-2-yl)-2-methylphenyl)-N-(4-hydroxybicyclo[2.2.1]heptan-1-yl)imidazo[1,2-a]pyrazine-6-carboxamide trifluoroacetate salt], the half-inhibitory concentration (IC50) in assay [2] (setting [5]) lay within 500 to 1000 nM.

`Cc1ccc(C(C)(O)C(F)(F)F)cc1-c1cnc2c(N)nc(CC(=O)N3CCOCC3)cn12` (centres unmarked) [Example 173, 2-(8-amino-3-(2-methyl-5-(1,1,1-trifluoro-2-hydroxypropan-2-yl)phenyl)imidazo[1,2-a]pyrazin-6-yl)-1-morpholinoethanone trifluoroacetate salt]: the results for the IC50 in assay [1] and in assay [3] were 0.5 to 2 µM and 0.1 to 0.5 µM, respectively.

For `CC(=O)NCC(O)(c1ccc(C)c(-c2cnc3c(N)nc(C(F)(F)F)cn23)c1)C(F)(F)F` (centres unmarked) [Example 211, N-(2-(3-(8-amino-6-(trifluoromethyl)imidazo[1,2-a]pyrazin-3-yl)-4-methylphenyl)-3,3,3-trifluoro-2-hydroxypropyl)acetamide trifluoroacetate], the figures for the IC50 in assay [1] and in assay [3] were 0.1 to 0.5 µM and below 0.1 µM, respectively.

For the molecule `Cc1ccc(C(O)(CNC(=O)c2ccccc2)C(F)(F)F)cc1-c1cnc2c(N)nc(C(F)(F)F)cn12` (centres unmarked) [Example 212, N-(2-(3-(8-amino-6-(trifluoromethyl)imidazo[1,2-a]pyrazin-3-yl)-4-methylphenyl)-3,3,3-trifluoro-2-hydroxypropyl)benzamide trifluoroacetate salt], the IC50 was 0.1 to 0.5 µM in assay [1] and below 0.1 µM in assay [3].

Consider `CCNC(=O)c1cn2c(-c3cc(C(O)(CNC(C)=O)C(F)(F)F)ccc3C)cnc2c(N)n1` (centres unmarked) [Example 221, 3-(5-(3-acetamido-1,1,1-trifluoro-2-hydroxypropan-2-yl)-2-methylphenyl)-8-amino-N-ethylimidazo[1,2-a]pyrazine-6-carboxamide trifluoroacetate], for which the IC50 is 0.1 to 0.5 µM in assay [1] and below 0.1 µM in assay [3].

Consider `Cc1ccc(C(C)(O)C(F)(F)F)cc1-c1cnc2c(N)nc(C(=O)NC34CCN(CC3)C4)cn12` (centres unmarked) [Example 277, 8-Amino-N-(1-azabicyclo[2.2.1]heptan-4-yl)-3-(2-methyl-5-(1,1,1-trifluoro-2-hydroxypropan-2-yl)phenyl)imidazo[1,2-a]pyrazine-6-carboxamide trifluoroacetate salt], for which the IC50 in assay [1] and in assay [3] was 0.1 to 0.5 µM in each case.

Consider `Cc1ccc(C(C)(O)C(F)(F)F)cc1-c1cnc2c(N)nc(C(=O)NC34COC(CO)(C3)C4)cn12` (centres unmarked) [Example 279, 8-Amino-N-(1-(hydroxymethyl)-2-oxabicyclo[2.1.1]hexan-4-yl)-3-(2-methyl-5-(1,1,1-trifluoro-2-hydroxypropan-2-yl)phenyl)imidazo[1,2-a]pyrazine-6-carboxamide trifluoroacetate salt], for which the IC50 was 0.1 to 0.5 µM in assay [1] and below 0.1 µM in assay [3].
